According to ChEMBL document CHEMBL1201862, “PubChem BioAssay data set” (2004):
“And” between values parts separate entries of the source, which are not always exact repeats. Identical values can stand only once. The source made the active and inactive calls.

Legend:
[1] = HepG2 cell cytotoxicity, dose response, cytotoxicity control, plate reader, dry powder samples (AID 1159569); type: functional, cell-based;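 further: inhibitor potency with signal falling toward the positive control level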
[2] = P. falciparum Dd2 growth inhibitors, dose response, SYBR Green, dry powder samples (AID 1159566); type: functional, cell-based;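 further: potency for growth inhibition with lower SYBR green DNA signal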
[3] = HepG2 cell cytotoxicity, dose response, cytotoxicity control, cherry-picked samples (AID 1159577); type: functional, cell-based
[4] = P. falciparum ATP4 D1247Y mutant growth inhibitors, dose response, NITD609-resistant line, SYBR Green, dry powder (AID 1159571); type: functional, cell-based;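 further: parasites synchronized at ring stage by sorbitol before testing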
[5] = Plasmodium falciparum Dd2 Sybr green parasite growth Measured in Cell-Based and Microorganism Combination System Using Plate Reader - 2153-01_Inhibitor_Dose_DryPowder_Activity_Set3.; type: functional
[6] = P. falciparum 3D7-ScDHODH growth inhibitors, dose response, SYBR Green, dry powder samples (AID 1159570); type: functional, cell-based;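 further: parasite growth measured after 72 hours of compound exposure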
[7] = P. falciparum Dd2 growth inhibitors, dose response, SYBR Green, cherry-picked samples (AID 1159567); type: functional, cell-based
[8] = Luminescence Cell-Based Dose Response HTS to Identify Inhibitors of 5'UTR Stem-Loop Driven Prion Protein mRNA Translation in H4 Neuroglioblastoma Cells. [Related pubchem assays: 1827 (Project Summary), 1813 (Primary HTS)]; type: functional
[9] = Vero cell cytotoxicity, dose response, cytotoxicity control for Vif-APOBEC3G degradation inhibitor project, Vero cells (AID 1117358); type: functional; conditions: Human immunodeficiency virus 1, Vero
[10] = tested on: Streptococcus; assay: Group A Streptococcus viability loss, dose response, counter-screen for streptokinase expression inhibitor project, luminescence, BacTiterGlo (AID 1915); type: functional, organism-based;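 further: potency for reduction of bacterial viability or growth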
[11] = inhibitors of SNCA 5'UTR-driven reporter translation, confirmation, H4 neuroglioma cells, luminescence (AID 1988); type: functional, cell-based
[12] = inhibitors of firefly luciferase expression or activity, dose response, H4 neuroglioma cells, luminescence (AID 1990); type: functional, cell-based
[13] = tested on: Streptococcus sp. 'group A'; assay: growth inhibition of control SK(-) GAS strain, dose response, counter-screen for streptokinase expression inhibitor project, luminescence, kanamycin, BacTiterGlo, confirmation (AID 1900); type: functional, organism-based
[14] = target: T1, Streptokinase A (Streptococcus pyogenes serotype M1, UniProt P10520); assay: S. pyogenes streptokinase expression inhibitors, potency, dose response, plasminogen activation absorbance, OD405 (AID 1914); type: functional, Streptococcus pyogenes M1 GAS;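 further: secreted streptokinase activity via plasminogen activation per viability signal from cell pellet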
T1 sequence (P10520 whole entry): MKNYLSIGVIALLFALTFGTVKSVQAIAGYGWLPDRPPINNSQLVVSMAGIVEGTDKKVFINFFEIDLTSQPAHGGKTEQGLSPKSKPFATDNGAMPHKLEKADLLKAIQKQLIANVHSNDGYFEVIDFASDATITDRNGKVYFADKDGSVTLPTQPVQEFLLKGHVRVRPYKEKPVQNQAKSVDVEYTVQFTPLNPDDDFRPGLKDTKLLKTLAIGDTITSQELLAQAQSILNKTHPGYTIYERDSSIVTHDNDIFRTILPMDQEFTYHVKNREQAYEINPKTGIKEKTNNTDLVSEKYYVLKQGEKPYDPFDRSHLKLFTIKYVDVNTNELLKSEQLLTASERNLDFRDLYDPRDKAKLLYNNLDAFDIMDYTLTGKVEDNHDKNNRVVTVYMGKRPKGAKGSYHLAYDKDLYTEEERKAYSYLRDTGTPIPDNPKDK

[15] = target: Heat shock protein HSP 90-alpha (Homo sapiens, UniProt P07900); type: functional, organism-based
[16] = target: Beta-2 adrenergic receptor (Homo sapiens, UniProt P07550); assay: beta2AR agonists driving receptor internalization, dose response, cell-based, FAP fluorogen, flow cytometry, cherry pick 1 (AID 588763); type: functional
[17] = Glucagon-like peptide 1 release potency, NCI-H716 cell line, dose-response, half-maximal inhibitory concentration (AID 1117344); type: functional, cell-based
[18] = target: Cytochrome P450 2C19 (Homo sapiens, UniProt P33261); assay: Cytochrome panel assay with activity outcomes. Panel member name: p450-cyp2c19 Compounds with AC50 equal or less than 10 uM are considered active; type: functional; conditions: read-out: AC50
Chain of Cytochrome P450 2C19 (P33261 whole entry): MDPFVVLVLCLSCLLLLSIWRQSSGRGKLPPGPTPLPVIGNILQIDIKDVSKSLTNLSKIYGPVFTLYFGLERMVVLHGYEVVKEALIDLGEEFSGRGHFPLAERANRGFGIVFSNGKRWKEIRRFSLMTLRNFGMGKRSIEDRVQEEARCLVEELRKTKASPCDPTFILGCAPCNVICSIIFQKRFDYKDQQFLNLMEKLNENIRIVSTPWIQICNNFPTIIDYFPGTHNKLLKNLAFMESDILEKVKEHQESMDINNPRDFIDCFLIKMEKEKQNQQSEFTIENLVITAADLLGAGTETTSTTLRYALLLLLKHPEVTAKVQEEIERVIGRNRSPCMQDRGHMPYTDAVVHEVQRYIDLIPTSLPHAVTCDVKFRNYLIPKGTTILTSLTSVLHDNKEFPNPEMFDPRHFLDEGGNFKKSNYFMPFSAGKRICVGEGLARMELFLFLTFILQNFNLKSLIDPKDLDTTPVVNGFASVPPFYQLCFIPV

[19] = target: Cytochrome P450 2D6 (Homo sapiens, UniProt P10635);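 further: CYP2D6 member of a cytochrome P450 panel assay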
Chain of Cytochrome P450 2D6 (P10635 whole entry): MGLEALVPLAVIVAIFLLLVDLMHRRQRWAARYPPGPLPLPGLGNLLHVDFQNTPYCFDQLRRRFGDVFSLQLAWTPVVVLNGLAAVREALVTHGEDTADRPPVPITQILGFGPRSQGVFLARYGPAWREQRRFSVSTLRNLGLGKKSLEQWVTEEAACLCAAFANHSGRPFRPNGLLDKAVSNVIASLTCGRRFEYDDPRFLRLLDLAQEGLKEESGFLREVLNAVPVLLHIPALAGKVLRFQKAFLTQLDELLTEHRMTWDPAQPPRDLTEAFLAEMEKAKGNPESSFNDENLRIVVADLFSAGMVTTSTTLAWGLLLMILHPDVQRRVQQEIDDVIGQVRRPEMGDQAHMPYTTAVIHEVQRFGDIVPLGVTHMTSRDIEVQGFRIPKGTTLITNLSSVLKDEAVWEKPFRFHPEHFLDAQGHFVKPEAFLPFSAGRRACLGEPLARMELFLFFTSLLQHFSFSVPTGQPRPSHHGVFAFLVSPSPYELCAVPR

[20] = target: ATP-dependent molecular chaperone HSP82 (Candida albicans (strain WO-1) (Yeast), UniProt C4YTQ8); assay: loss of DOC-induced GRE-beta-galactosidase reporter signal, dose response, Hsp90 inhibitor project, S. cerevisiae, luminescence (AID 2400); type: functional, cell-based;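 further: beta-galactosidase luminescence from glucocorticoid response element reporter as proxy for Hsp90 function; inhibitor potency where signal loss means Hsp90 inhibition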
[21] = HeLa 2N DNA content increase, dose response, cell-based, IC50 (AID 1117349); type: functional
[22] = C. albicans growth with fluconazole, confirmation, fluorescence, retest (AID 2467); type: functional, cell-based
[23] = HeLa 4N DNA content increase, dose response, cell-based, IC50 (AID 1117351); type: functional
[24] = target: Cytochrome P450 2C9 (Homo sapiens, UniProt P11712)
Chain of Cytochrome P450 2C9 (P11712 whole entry): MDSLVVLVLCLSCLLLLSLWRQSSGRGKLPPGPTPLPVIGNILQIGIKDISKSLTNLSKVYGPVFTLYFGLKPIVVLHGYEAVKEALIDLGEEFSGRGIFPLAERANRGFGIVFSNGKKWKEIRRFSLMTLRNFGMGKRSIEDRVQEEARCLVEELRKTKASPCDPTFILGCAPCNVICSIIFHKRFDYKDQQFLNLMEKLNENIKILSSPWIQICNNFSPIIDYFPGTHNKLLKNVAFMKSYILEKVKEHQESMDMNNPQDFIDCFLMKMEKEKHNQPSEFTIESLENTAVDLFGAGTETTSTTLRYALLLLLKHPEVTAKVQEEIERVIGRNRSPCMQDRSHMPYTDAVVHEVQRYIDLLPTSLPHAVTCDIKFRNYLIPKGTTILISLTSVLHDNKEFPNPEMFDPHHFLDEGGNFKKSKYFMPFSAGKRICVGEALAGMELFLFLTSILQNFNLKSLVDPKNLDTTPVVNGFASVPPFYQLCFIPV

[25] = target: T2, Serine/threonine-protein phosphatase (Candida dubliniensis (strain CD36 / CBS 7987 / NCPF 3949 / NRRLY-17841) (Yeast), UniProt B9W6M3); assay: calcineurin pathway inhibitors in yeast reporter, dose response, S. cerevisiae, CDRE-lacZ, luminescence, secondary (AID 2388); type: functional, cell-based;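 further: yeast reporter cells carrying a calcineurin-responsive lacZ construct stimulated with calcium chloride; luminescent beta-galactosidase reporter signal in whole cells rather than isolated phosphatase activity; potency for inhibition where a drop in reporter signal means calcineurin blockade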
T2 sequence (B9W6M3 whole entry): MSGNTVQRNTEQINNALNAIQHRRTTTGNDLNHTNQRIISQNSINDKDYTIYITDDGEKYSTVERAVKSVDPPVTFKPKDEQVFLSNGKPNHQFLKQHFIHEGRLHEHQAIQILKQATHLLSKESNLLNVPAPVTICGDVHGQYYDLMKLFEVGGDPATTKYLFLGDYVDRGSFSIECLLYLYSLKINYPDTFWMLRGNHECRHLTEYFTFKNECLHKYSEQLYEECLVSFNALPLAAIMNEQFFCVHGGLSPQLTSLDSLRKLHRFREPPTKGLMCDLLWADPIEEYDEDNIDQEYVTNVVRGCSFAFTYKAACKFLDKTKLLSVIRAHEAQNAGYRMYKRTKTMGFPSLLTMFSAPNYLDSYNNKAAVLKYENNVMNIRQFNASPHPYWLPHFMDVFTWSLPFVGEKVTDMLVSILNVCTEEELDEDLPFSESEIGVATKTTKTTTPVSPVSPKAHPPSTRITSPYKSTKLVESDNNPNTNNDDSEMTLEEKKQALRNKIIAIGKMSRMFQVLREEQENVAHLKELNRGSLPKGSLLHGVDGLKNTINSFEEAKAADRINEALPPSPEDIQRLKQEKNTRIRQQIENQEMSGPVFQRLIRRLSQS

[26] = NIH-3T3 fibroblast cytotoxicity, dose response, cytotoxicity control, cell-based, fluorescence, Alamar Blue, secondary assay (AID 2327); type: functional;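 further: NIH-3T3 mouse fibroblasts cultured with fluconazole at 8 µg/mL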
[27] = half-maximal inhibitory concentration for glucagon-like peptide-1 release, STC-1 cell line, dose-response (AID 1117345); type: functional, cell-based
[28] = A549 cell cytotoxicity, dose response, cytotoxicity control, CellTiter-Glo luminescence, dry powder, set 5 (AID 743158); type: functional, cell-based
[29] = HEK293 cell cytotoxicity, dose response, cytotoxicity control, ATP luminescence, dry powder, set 3 (AID 743131); type: functional, cell-based
[30] = HepG2 cell cytotoxicity, dose response, cytotoxicity control, ATP luminescence, dry powder, set 2 (AID 743129); type: functional, cell-based
[31] = cytotoxicity toward HCT116 cells – cell-based, CellTiter-Glo luminescence, IC50, dose response (AID 1117332); type: functional; conditions: HCT-116
[32] = HCT116 cell viability decrease, GSK3B pretreatment – CellTiter-Glo, IC50, dose response (AID 1117339); type: functional; conditions: HCT-116
[33] = RKO cell viability reduction, dose response, CellTiter-Glo luminescence (AID 1117322); type: functional
[34] = cytotoxicity toward Colo320 cells – cell-based, CellTiter-Glo luminescence, IC50, dose response (AID 1117334); type: functional; conditions: COLO 320
[35] = SNU-C1 cell viability reduction, dose response, CellTiter-Glo luminescence (AID 1117323); type: functional, cell-based
[36] = cytotoxicity toward HT-29 cells – cell-based, CellTiter-Glo luminescence, IC50, dose response (AID 1117330); type: functional
[37] = CellTiter-Glo luminescent dose response of DLD-1 viability loss (AID 1117352); type: functional
[38] = target: T3, fMet-Leu-Phe receptor (Homo sapiens, UniProt P21462); assay: FPR ligands, dose response (AID 519); type: functional
T3 sequence (P21462 whole entry): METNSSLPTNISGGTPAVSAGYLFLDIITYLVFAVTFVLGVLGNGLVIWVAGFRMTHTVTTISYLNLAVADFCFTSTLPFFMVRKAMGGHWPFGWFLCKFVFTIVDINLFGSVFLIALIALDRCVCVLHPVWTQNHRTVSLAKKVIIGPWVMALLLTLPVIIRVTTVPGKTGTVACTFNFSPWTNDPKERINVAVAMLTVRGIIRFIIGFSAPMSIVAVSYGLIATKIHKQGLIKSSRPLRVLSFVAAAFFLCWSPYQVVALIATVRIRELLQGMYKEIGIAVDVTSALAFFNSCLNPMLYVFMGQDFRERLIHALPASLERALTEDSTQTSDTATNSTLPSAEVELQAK

[39] = target: Mitogen-activated protein kinase 10 (Homo sapiens, UniProt P53779); assay: Dose response biochemical screening assay for inhibitors of c-Jun N-Terminal Kinase 3 (JNK3). [Related pubchem assays: 746 ]
Chain of Mitogen-activated protein kinase 10 (P53779 whole entry): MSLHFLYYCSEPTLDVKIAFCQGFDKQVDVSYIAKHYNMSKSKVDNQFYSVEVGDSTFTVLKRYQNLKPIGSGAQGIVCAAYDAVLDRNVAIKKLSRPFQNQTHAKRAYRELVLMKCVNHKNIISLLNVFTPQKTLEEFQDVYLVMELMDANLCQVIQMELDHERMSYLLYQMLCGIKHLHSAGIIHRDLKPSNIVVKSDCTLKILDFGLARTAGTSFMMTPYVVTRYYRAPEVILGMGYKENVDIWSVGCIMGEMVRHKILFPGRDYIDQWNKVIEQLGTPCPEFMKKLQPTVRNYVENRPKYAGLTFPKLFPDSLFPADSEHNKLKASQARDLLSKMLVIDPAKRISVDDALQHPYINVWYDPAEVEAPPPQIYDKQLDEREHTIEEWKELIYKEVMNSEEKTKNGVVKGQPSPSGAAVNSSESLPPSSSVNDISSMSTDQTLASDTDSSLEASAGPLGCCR

[40] = target: Photoreceptor-specific nuclear receptor (Homo sapiens, UniProt Q9Y5X4); assay: NR2E3 inverse agonists, dose response, biochemical, TR-FRET (AID 463256); type: functional
[41] = target: Peroxisome proliferator-activated receptor gamma/Nuclear receptor corepressor 2 (Homo sapiens, UniProt P37231+Q9Y618); assay: Counterscreen for NR2E3 inverse agonists: TR-FRET-based biochemical high throughput dose response assay to identify inverse agonists of the interaction between peroxisome proliferator-activated receptor gamma (PPARg) and nuclear receptor co-repressor 2 (NCOR2).; type: functional
Chain of Peroxisome proliferator-activated receptor gamma/Nuclear receptor corepressor 2 (P37231 whole entry): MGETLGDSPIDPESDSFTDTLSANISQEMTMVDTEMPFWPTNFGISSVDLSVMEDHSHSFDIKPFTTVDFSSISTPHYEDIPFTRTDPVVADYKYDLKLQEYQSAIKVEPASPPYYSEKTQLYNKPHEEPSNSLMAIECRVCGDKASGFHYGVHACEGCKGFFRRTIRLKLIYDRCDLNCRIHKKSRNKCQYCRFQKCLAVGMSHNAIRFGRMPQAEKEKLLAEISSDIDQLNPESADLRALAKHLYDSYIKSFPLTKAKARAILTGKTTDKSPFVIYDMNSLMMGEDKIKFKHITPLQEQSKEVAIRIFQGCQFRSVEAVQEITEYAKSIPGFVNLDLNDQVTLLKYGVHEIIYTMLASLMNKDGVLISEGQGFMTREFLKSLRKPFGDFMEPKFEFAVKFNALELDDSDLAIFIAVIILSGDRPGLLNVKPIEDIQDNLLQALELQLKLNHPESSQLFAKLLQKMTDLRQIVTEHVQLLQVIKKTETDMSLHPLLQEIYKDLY
Chain of Peroxisome proliferator-activated receptor gamma/Nuclear receptor corepressor 2 (Q9Y618 whole entry): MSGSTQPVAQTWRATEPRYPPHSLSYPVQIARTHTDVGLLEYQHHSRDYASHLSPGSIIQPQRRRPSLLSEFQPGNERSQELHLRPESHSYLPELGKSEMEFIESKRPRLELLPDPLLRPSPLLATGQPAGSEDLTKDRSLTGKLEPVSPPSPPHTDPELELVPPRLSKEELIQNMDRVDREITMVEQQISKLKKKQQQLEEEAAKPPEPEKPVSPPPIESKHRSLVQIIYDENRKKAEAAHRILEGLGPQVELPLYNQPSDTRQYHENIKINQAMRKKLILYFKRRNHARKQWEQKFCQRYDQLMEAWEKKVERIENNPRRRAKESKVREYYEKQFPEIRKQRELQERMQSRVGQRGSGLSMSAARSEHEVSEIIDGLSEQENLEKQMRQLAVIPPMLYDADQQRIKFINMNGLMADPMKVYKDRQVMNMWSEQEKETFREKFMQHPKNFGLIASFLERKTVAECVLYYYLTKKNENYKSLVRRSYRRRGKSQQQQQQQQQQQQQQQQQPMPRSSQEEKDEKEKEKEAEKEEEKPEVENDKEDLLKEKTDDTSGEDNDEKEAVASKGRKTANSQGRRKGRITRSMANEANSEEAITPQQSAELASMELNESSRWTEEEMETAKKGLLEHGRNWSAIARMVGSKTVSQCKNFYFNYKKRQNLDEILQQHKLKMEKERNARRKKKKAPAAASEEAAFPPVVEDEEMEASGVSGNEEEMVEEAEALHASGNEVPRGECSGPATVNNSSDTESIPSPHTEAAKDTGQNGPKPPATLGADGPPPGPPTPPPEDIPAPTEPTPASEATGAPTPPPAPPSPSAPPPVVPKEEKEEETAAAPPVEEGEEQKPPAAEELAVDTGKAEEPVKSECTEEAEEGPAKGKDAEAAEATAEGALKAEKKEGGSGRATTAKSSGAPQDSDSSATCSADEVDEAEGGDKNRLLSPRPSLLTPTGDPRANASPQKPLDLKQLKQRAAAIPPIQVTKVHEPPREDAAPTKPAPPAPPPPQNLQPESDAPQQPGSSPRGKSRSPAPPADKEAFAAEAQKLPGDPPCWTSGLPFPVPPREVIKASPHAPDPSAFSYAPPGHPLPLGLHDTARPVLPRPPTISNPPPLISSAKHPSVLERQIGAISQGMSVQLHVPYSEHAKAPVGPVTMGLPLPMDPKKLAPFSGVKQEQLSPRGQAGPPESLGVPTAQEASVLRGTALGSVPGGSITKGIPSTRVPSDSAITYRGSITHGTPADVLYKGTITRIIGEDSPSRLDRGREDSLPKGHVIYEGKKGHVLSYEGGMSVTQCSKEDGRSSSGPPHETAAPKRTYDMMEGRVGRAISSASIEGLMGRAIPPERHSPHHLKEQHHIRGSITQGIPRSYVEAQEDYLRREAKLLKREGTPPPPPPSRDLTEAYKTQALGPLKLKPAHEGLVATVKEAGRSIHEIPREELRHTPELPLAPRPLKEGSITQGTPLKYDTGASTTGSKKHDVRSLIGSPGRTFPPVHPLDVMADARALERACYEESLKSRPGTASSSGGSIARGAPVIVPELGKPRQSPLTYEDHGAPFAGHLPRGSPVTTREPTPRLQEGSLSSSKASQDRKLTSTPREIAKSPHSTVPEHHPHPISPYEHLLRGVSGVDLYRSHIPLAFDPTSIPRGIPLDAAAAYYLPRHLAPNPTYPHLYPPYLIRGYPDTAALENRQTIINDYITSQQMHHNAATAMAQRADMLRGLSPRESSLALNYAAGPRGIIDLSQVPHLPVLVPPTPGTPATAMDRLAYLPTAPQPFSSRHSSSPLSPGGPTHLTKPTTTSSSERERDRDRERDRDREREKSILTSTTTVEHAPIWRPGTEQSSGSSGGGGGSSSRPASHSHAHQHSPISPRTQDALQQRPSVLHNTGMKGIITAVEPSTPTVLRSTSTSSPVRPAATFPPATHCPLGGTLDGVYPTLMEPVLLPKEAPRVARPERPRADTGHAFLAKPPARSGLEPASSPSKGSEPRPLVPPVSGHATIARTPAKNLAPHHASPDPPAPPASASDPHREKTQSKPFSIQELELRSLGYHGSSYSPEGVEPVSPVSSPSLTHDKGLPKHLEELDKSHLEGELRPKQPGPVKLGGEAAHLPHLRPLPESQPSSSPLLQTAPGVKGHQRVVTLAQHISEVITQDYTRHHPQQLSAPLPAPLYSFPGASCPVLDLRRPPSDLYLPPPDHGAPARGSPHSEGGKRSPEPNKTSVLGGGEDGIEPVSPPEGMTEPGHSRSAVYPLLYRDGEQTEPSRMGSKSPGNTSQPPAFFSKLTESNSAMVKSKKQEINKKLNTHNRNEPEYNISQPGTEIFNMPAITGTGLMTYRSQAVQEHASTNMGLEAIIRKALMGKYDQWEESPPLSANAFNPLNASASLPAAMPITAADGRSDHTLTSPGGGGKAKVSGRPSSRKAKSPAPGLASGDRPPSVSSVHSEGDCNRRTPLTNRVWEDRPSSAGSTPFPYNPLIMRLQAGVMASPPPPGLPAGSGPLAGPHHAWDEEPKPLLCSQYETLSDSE

[42] = P. falciparum Dd2 growth inhibitors, dose response, SYBR Green, dry powder samples, set 9 (AID 1159568); type: functional, cell-based
[43] = A549 cell cytotoxicity, dose response, cytotoxicity control, 24 h, CellTiter-Glo luminescence, cherry-picks (AID 1053115); type: functional, cell-based; conditions: A549, 24 h
[44] = A549 cell cytotoxicity, dose response, CellTiter-Glo luminescence, dry powder, set 17 (AID 1117284); type: functional, cell-based

CO[C@@H]1CN(C)C(=O)c2ccc(NC(=O)Nc3ccccc3Cl)cc2OC[C@@H](C)N(C)C[C@H]1C
AC50 [1]: 62.2 µM (active)
AC50 [2]: 102 nM (active)
AC50 [3]: > 39 µM (inactive)
AC50 [4]: 512 nM (active)
AC50 [5]: 446 nM (active)
AC50 [6]: 4.25 µM (active)
AC50 [7]: 666 nM (active)

CC(C)c1ccc(-c2[nH]c(N3CCCC3)nc3nnc(N)c2-3)cc1
EC50 [8]: > 120 µM (not active)
CC50 [9]: > 40 µM (active)
EC50 [10]: > 150 µM (not active)
EC50 [11]: 12.9 µM (active)
EC50 [12]: > 120 µM (not active)
EC50 [13]: 103 µM (active)
EC50 [14]: > 150 µM (not active)

Clc1ccccc1C(c1ccccc1)(c1ccccc1)n1ccnc1 [CLOTRIMAZOLE]
AC50 [15]: < 195 nM (active)
EC50 [16]: 4.69 µM (active)
IC50 [17]: 20.2 µM (inactive)
AC50 [18]: 10 µM (active) and 7.94 µM (inconclusive)
EC50 [10]: 7.15 µM (active)
AC50 [19]: 10 µM (active) and 39.8 µM (inconclusive)
EC50 [20]: > 150 µM (inactive)
IC50 [21]: > 10 µM (inactive)
EC50 [22]: 628 nM (active)
IC50 [23]: > 10 µM (inactive)
AC50 [24]: 1 µM (active) and 316 nM (active)
EC50 [25]: > 180 µM (inactive)
EC50 [26]: 11.6 µM (active)
EC50 [13]: 4.3 µM (active)
EC50 [14]: > 150 µM (not active)
IC50 [27]: > 40 µM (inactive)

CCOC(=O)c1c(-c2ccc(-c3ccccc3)cc2)csc1NC(=O)CNCCN(C)C
AC50 [28]: 17.1 µM (active)
AC50 [29]: 13.3 µM (active)
AC50 [30]: 16.5 µM (active)

Cc1ccc2c(Br)cc(Br)c(O)c2n1 [BROQUINALDOL]
IC50 [31]: 1.16 µM (active)
IC50 [32]: 1.03 µM (active)
IC50 [33]: 311 nM (active)
IC50 [34]: 1 nM (active)
IC50 [35]: 12.8 µM (inactive)
IC50 [36]: > 6.67 µM (inactive)
IC50 [37]: 4.77 µM (active)

CCCOc1ccc(C2C(C(=O)c3ccc(C)o3)=C(O)C(=O)N2CCCn2ccnc2)cc1 (configuration not stated)
Ki [38]: 13.8 µM (active)
IC50 [39]: 19.7 µM (not active)

COc1cc2ccccc2cc1C(=O)Nc1ccc2oc(=O)ccc2c1
IC50 [40]: 2.28 µM (active)
IC50 [41]: 2.86 µM (active)

C[C@@H]1CCCCO[C@H](CN(C)S(=O)(=O)c2ccc(F)cc2)[C@@H](C)CN([C@H](C)CO)C(=O)c2cc(N(C)C)ccc2O1
AC50 [42]: 11.4 µM (active)

C[C@H](CO)N1C[C@H](C)[C@@H](CN(C)Cc2ccc(-c3ccccc3)cc2)Oc2cc(C#C[C@@H](C)O)ccc2S1(=O)=O
AC50 [43]: 52.6 µM (active)
AC50 [44]: 42.5 µM (active)
